Experimental data taken from ChEMBL document CHEMBL1157539, “Thousands of chemical starting points for antimalarial lead identification” (Nature, 2010).

Each compound was assayed on Plasmodium falciparum (assay: GSK_TCMDC: Inhibition of Plasmodium falciparum 3D7 in whole erythrocytes, using parasite LDH activity as an index of growth.). Settings: Plasmodium falciparum, 3D7.
Format: functional, organism-based
With `c1ccc(C(OCCC2CCN(Cc3cccnc3)CC2)c2ccccc2)cc1` the XC50 was 0.817 µM. For `CN(C)Cc1cccc(-c2ccc(Nc3nccc(NCC(O)c4ccccc4)n3)cc2)c1` (stereo not given), the XC50 was 0.136 µM. Compound `Clc1ccc(-c2[nH]c3ccccc3c2CN2CCC(N3CCCCC3)CC2)cc1` has an XC50 of 1.06 µM. Work on `N=C(NCCc1ccccc1Cl)c1ccc2ccccc2c1` yielded an XC50 of 1.63 µM. `CN1CCN(c2ccc(Nc3nccc(-c4c(-c5cccc(NC(=O)c6c(F)cccc6F)c5)nn5ccccc45)n3)cc2)CC1` gave an XC50 of 0.112 µM. `Cc1cc(N[C@@H](CC(C)C)C(=O)NCc2cccc(F)c2)nc(NCCc2ccccc2)n1` was tested, and the XC50 was 1.08 µM. For `CN1CC(c2ccc(Cl)c(Cl)c2)OC1=N` (stereo not given), the XC50 was 0.283 µM. `COc1ccc(Nc2cc(C)nc(NCc3ccc4c(c3)OCO4)n2)cc1` gave an XC50 of 0.766 µM. With `CCCN(CCC)S(=O)(=O)c1ccc(C(=O)N2CCC(C(=O)OCC)CC2)cc1` the XC50 was 0.803 µM. `O=C(Nc1ccc(C(=O)N2CCN(CCN3CCN(c4cccc(C(F)(F)F)c4)CC3)CC2)cc1)c1ccc(OC(F)(F)F)cc1` was tested, and the XC50 was 0.691 µM. Work on `OC(CNCCc1ccccc1)Cn1c2ccc(Cl)cc2c2cc(Cl)ccc21` (stereo not given) yielded an XC50 of 0.733 µM. For `O=C(Nc1ccc2c(c1)CN(Cc1ccc(N3CCCC3)o1)CCC2)c1cncs1`, the XC50 was 1.57 µM. Work on `O=C(O)c1ccc(-c2cnc3ccc(NC4CCC(O)CC4)nn23)cc1` (stereo not given) yielded an XC50 of 0.995 µM. `CCC(C)(C)c1ccc2nc(N)nc(N)c2c1C` was tested, and the XC50 was 0.00521 µM. In the case of `CC1(C)NC(N)=NC(=N)N1OCCCNC(=O)c1ccc([N+](=O)[O-])cc1`, the XC50 was 0.0032 µM. With `CC(=O)Nc1ncc(C(=O)Nc2cccc(-c3ccc(-c4nc5cc(F)ccc5[nH]4)cc3)c2)s1` the XC50 was 0.622 µM. Compound `Cc1cccc2nc(-c3cccc(-c4ccc(NC(=O)NCc5cccc(F)c5)cc4)c3)[nH]c12` has an XC50 of 0.237 µM. `Cc1cc(=O)c2cc(Oc3cccc(OC(F)(F)F)c3)ccc2[nH]1` was tested, and the XC50 was 0.862 µM. `Cc1cnc(Nc2ccccc2)nc1N[C@@H](CCCN)C(=O)Nc1ccccc1` gave an XC50 of 0.807 µM. `COc1cc(Nc2nccc(N3CCC(NC(=O)C4COc5ccccc5O4)C3)n2)cc(OC)c1OC` (stereo not given) gave an XC50 of 0.924 µM. For `O=C(Nc1ccc(Oc2ccccc2)cc1)N(Cc1ccc(-c2cccc(CN3CCNCC3)c2)cc1)C1CCN(Cc2ccccc2)CC1`, the XC50 was 0.881 µM. Compound `Cc1cccc2nc(-c3ccc(-c4ccc(CN5CCN(c6ccncc6)CC5)cc4)cc3)[nH]c12` has an XC50 of 0.163 µM. With `Oc1cccc2ccc(Nc3ccccn3)nc12` the XC50 was 0.752 µM. In the case of `COc1ccccc1C1CCN(C2CCC(NC(=O)/C=C/c3ccc(C(F)(F)F)cc3)CC2)CC1` (stereo not given), the XC50 was 1.16 µM. With `CCCCCCNC(=O)C(N)CCCC(N)C(=O)NCCCCCC` (stereo not given) the XC50 was 0.162 µM. `CC1CCC2(CC1)NC(N)=NC(=N)N2OCCCCCCCCO` (stereo not given) showed an XC50 of 0.147 µM. `CCOc1cc(C(=O)Nc2ccccc2N2CCN(S(C)(=O)=O)CC2)cc(OCC)c1OCC` showed an XC50 of 0.653 µM. With `Cn1cncc1C(=O)Nc1ccc(-c2cccc(-c3nc4cc(C(F)(F)F)ccc4[nH]3)c2)cc1` the XC50 was 0.858 µM. `CCn1c(=O)c(C(=O)Nc2cc(Cl)c(OC)cc2OC)nc2ccccc21` gave an XC50 of 0.244 µM. In the case of `CCOC(=O)c1cn(CC)c2cc(F)c(OC3CC4CCC3(C)C4(C)C)cc2c1=O` (stereo not given), the XC50 was 0.928 µM. `CO/C(=C\C=C\c1cc2cc(Cl)c(Cl)cc2[nH]1)C(=O)Nc1ccc(NCCN(C)C)nc1` showed an XC50 of 0.765 µM. `c1ccc2cc3c(Nc4ccc(N5CCCCCC5)cc4)ccnc3cc2c1` was tested, and the XC50 was 0.936 µM. For `COc1ccc2nccc([C@@H](O)CN3CCC(NC(=O)/C=C/c4cc([N+](=O)[O-])ccc4OC)CC3)c2c1`, the XC50 was 0.258 µM. `CCc1cn2c3c(cc(C(=O)N[C@@H](Cc4ccccc4)[C@H](O)CNCc4ccccc4C)cc13)N(C)S(=O)(=O)CC2` showed an XC50 of 0.271 µM. Compound `N#Cc1ccc(-c2ccc(OCC(O)CN3CCCN(C(=O)C(c4ccc5c(c4)OCO5)N4CCN(C/C=C/c5ccccc5)CC4)CC3)cc2)cc1` (stereo not given) has an XC50 of 0.654 µM. For `COc1cc(OC)cc(C(=O)Nc2nc(-c3ccccn3)cs2)c1`, the XC50 was 0.561 µM. Work on `CCSc1nnc(C2CCCN(CC(=O)Nc3cc(C(F)(F)F)ccc3Cl)C2)n1CC` (stereo not given) yielded an XC50 of 0.232 µM. `O=C(NCc1cccc2ccccc12)C1CCCN(C(=O)c2ccc(O)c(-c3ccc(Cl)c(Cl)c3)c2)C1` (stereo not given) gave an XC50 of 1.03 µM. Work on `FC(F)(F)c1ccc2[nH]c(-c3ccc(-c4ccc(CN5CCN(c6cnccn6)CC5)cc4)cc3)nc2c1` yielded an XC50 of 0.687 µM. Compound `C[C@H](Cc1ccc(S(=O)(=O)c2ccc(C[C@@H](C)NC[C@H](O)c3cccc(Cl)c3)cc2)cc1)NC[C@H](O)c1cccc(Cl)c1` has an XC50 of 0.258 µM. `Cc1ccc(NC(=O)Nc2ccc(Cl)cc2)cc1-c1cccc(C(=O)Nc2ccc(F)cc2)c1` was tested, and the XC50 was 0.735 µM. `CC(=O)NCCNc1cc(N2CCc3ncnc(Nc4ccc(OCc5c(F)cccc5F)c(Cl)c4)c3C2)ncn1` was tested, and the XC50 was 0.16 µM. `CCOC(=O)c1cc(C(=O)OC)c2ccccn12` gave an XC50 of 0.223 µM. With `CC(CN(C)C)C(=O)Nc1ccc(-c2cccc(-c3nc4cc(C(F)(F)F)ccc4[nH]3)c2)cc1` (stereo not given) the XC50 was 0.21 µM. For `CCCCc1cc(O)c2c(c1)OC(C)(C)C=C2C1=CCN(Cc2ccccc2)CC1`, the XC50 was 0.247 µM. For `CCn1c(Sc2ccc(C#N)c([N+](=O)[O-])c2)nnc1-c1ccc(Cl)cc1`, the XC50 was 0.552 µM. In the case of `CN=c1nc(NN=Cc2ccccc2Cl)[nH]c(=Nc2cccc(C(F)(F)F)c2)[nH]1`, the XC50 was 0.915 µM. In the case of `CS(=O)(=O)N(c1cccc(F)c1)c1cc(C(=O)N[C@@H](Cc2ccccc2)[C@H](O)CNCc2cccc(C(F)(F)F)c2)cc(N2CCCC2=O)c1`, the XC50 was 0.91 µM. For `NC1CCN(c2nc(NCCc3ccc(O)cc3)nc(NCc3ccccc3-c3ccccc3)n2)CC1`, the XC50 was 0.822 µM. In the case of `c1cn(-c2ccc(CNc3nccc(Nc4ccc(OCCN5CCOCC5)cc4)n3)cc2)cn1`, the XC50 was 0.878 µM. For `CCOc1ccc(C(Cc2ccccc2)NC(=O)c2cccnc2)cc1OCC` (stereo not given), the XC50 was 0.769 µM. In the case of `CCCC(C)NC[C@@H](O)[C@H](Cc1ccccc1)NC(=O)c1cc(NCC)cc(N2CCCCS2(=O)=O)c1` (stereo not given in full), the XC50 was 0.163 µM. For `Cc1cccc2nc(-c3cccc(-c4cccc(NC(=O)Cc5c[nH]cn5)c4)c3)[nH]c12`, the XC50 was 0.675 µM. For `COc1ccc(CN2CCC(NCc3cccc([N+](=O)[O-])c3)CC2)cc1`, the XC50 was 0.91 µM. `CN(C)S(=O)(=O)c1ccc(N2CCN(CCC3(c4cccc(F)c4)CCN(C(=O)C(C)(C)C)CC3)CC2)c2nonc12` showed an XC50 of 0.697 µM. `Fc1cc(CN2CCCC2)ccc1OCCCN1CCN(c2cccc(Cl)c2Cl)CC1` was tested, and the XC50 was 1.04 µM. Compound `COc1cc(C(F)(F)F)c2cc(CNCCCNc3nc4ccccc4[nH]3)[nH]c2c1` has an XC50 of 0.305 µM. In the case of `CC(C)N(C)C(=O)n1cnc(S(=O)(=O)C2CC3CCC2C3)n1` (stereo not given), the XC50 was 0.057 µM. Compound `CC(C)c1ccc(NC(=O)NCCCC2CCCN(CCCCCNC(=O)/C=C/c3ccc(Cl)c(Cl)c3)C2)cc1` (stereo not given) has an XC50 of 0.957 µM. With `CN1CCC(C(=O)Nc2cccc(-c3cccc(-c4nc5cc(F)ccc5[nH]4)c3)c2)CC1` the XC50 was 0.695 µM. `Cc1ccc2[nH]c(-c3ccccc3N)cc2c1` was tested, and the XC50 was 0.923 µM. Compound `Cc1cccc(CN2CCCN(Cc3ccc(C(=O)Nc4ccc(Cl)cc4)cc3)CC2)c1` has an XC50 of 0.596 µM. Work on `COc1ccc(NC(=O)Nc2cccc(-c3cccc(-c4nc5ccccc5[nH]4)c3)c2)cc1` yielded an XC50 of 0.309 µM. Compound `Cn1ccnc1-c1nc2ccccn2c1NCC(=O)Nc1ccccc1N1CCCCC1` has an XC50 of 0.98 µM. For `COc1c(CN2CCOCC2)cccc1-c1cc2c(-c3ccc(C(=O)O)c(C(C)C)c3)ccnc2[nH]1`, the XC50 was 0.743 µM. In the case of `c1cc(-c2ccc(CNCCc3ccncc3)cc2)cc(-c2nc3ccccc3[nH]2)c1`, the XC50 was 0.139 µM. With `O=C(Nc1ccc(S(=O)(=O)N2CCCCC2)cc1)c1cc(-c2ccccc2O)n[nH]1` the XC50 was 0.846 µM. `O=C(NCC1CC1)C1CCN(C(c2ccccc2)c2cc(F)cc(F)c2)CC1` (stereo not given) gave an XC50 of 0.38 µM. `Cc1cccc2nc(-c3ccc(-c4cccc(NC(=O)C(C)CN5CCN(C)CC5)c4)s3)[nH]c12` (stereo not given) showed an XC50 of 0.748 µM. `O=C(NCCOc1ccccc1)[C@H](Cc1ccccc1)Nc1ccnc(NCC2CCCCC2)n1` showed an XC50 of 1.2 µM. Work on `CCC1(C)N=C(N)N=C(N)N1c1ccc(Cl)cc1` (stereo not given) yielded an XC50 of 0.159 µM. With `CCCCCCCN1CCC(CC(=O)Nc2ccnc3ccc(OC)cc23)CC1` the XC50 was 0.722 µM. For `OC(CNc1ccnc(Nc2cccc(Cl)c2)n1)c1ccccc1C(F)(F)F` (stereo not given), the XC50 was 0.902 µM. `CC(CN(C)C)Oc1ccc2nc(-c3cccc(OCc4ccccc4)c3)[nH]c2c1C#N` (stereo not given) was tested, and the XC50 was 0.407 µM. In the case of `CC(=O)Nc1nc(C(=O)Nc2cccc(-c3cccc(-c4nc5cccc(C)c5[nH]4)c3)c2)cs1`, the XC50 was 0.115 µM. In the case of `O=C(Nc1cccc(-c2ccc(NCCCN3CCCC3)nc2)c1)c1ccccc1`, the XC50 was 0.865 µM. `Fc1cc(Cl)ccc1Nc1ccnc2cc(-c3ccc(CN4CCCCC4)o3)ccc12` gave an XC50 of 0.337 µM. Compound `O=C(NCCc1ccccc1F)c1ccc(N2CCN(c3ccncc3)CC2)cn1` has an XC50 of 1.08 µM. In the case of `COc1cc(C)nc2ccc(NC(=O)Nc3ccc([N+](=O)[O-])cc3C)cc12`, the XC50 was 0.602 µM. In the case of `O=C(Cc1cccc2ccccc12)N1CCc2cc3nccc(N4CCN5CCC[C@H]5C4)c3cc21`, the XC50 was 0.777 µM. In the case of `N#CC(c1ccc(Br)cc1)c1ccc2c(C(F)(F)F)cc(C(F)(F)F)nc2n1` (stereo not given), the XC50 was 0.44 µM. `CC[C@H]1CN2CC[C@H]1C[C@H]2[C@H](O)c1cc(N2CCCC(CO)C2)nc2ccc(OC)cc12` (stereo not given in full) showed an XC50 of 0.0775 µM. Compound `CCC[C@@H]([C@@H](CC1CCCCC1)C(=O)N[C@@H](CCCCNS(C)(=O)=O)C(=O)Nc1nccs1)N(O)C=O` has an XC50 of 0.0811 µM. Compound `Cc1ccc(NC(=O)c2ccc(CN3CCCN(Cc4cccc(O)c4)CC3)cc2)cc1F` has an XC50 of 0.591 µM. `CCOC(=O)c1c(CCc2ccc(C(F)(F)F)cc2)nc2c(c1-c1ccc(C(=O)N[C@@H](C)c3ccncc3)cc1)C(=O)N1CCC[C@@H]21` showed an XC50 of 0.924 µM. For `CC1(C)NC(N)=NC(=N)N1OCc1nc(N)nc(Nc2ccccc2)n1`, the XC50 was 0.274 µM. With `COc1ccc2c(c1)CC(C)(C)NC2CCCCCCCCC1NC(C)(C)Cc2cc(OC)ccc21` (stereo not given) the XC50 was 1.3 µM. `COc1cc(CNCCCCCCNCc2cc(OC)cc3ccccc23)c2ccccc2c1` was tested, and the XC50 was 0.59 µM. `O=C(Nc1ccc2c(c1)CCC2)N[C@H]1CCN(Cc2ccc(OCCCN3CCCCC3)cc2)C1` gave an XC50 of 0.864 µM. `O=C(c1cccc(Br)c1)N1CCN(c2ccc([N+](=O)[O-])c(NC3CC3)c2)CC1` was tested, and the XC50 was 0.936 µM. Work on `COc1ccc(-c2ccc(NC(=O)c3ccccc3)cc2)cc1CN1CCCN(C)CC1` yielded an XC50 of 0.905 µM. In the case of `C=C(C)COc1ccc(-c2n[nH]c(C(F)(F)F)c2-c2ccccc2OC)c(O)c1`, the XC50 was 0.781 µM. `O=C(Nc1ccc(Cn2ncc(N3CCCNCC3)c(Cl)c2=O)cc1)Nc1ccc(F)cc1[N+](=O)[O-]` was tested, and the XC50 was 1.1 µM. In the case of `COc1ccc2nccc([C@@H](O)CN3CCC(NCc4cc5ccccc5nn4)CC3)c2c1`, the XC50 was 1.2 µM. Work on `COc1ccc(-c2ccc(NC(=O)c3cccc(Cl)c3)c(F)c2)cc1CNC(C)C` yielded an XC50 of 0.895 µM.
